Data taken from patent US8354547B2, “4β-amino podophyllotoxin congeners as anti tumour antibiotics a process for the preparation thereof” (Council of Scientific & Industrial Research, priority 2008, dated 2013).

How the values were obtained:
[1] = tested on: Liver (HEP-2) cancer cell line; test: SRB in vitro cytotoxicity assay, Liver HEP-2; assay type: cell-based, human
Protocol: (§1) Single cell suspension of the tumor cells grown in tissue culture were made, cells counted and cell count adjusted to 1×10^5 to 5×10^5 Ninetysix (96) well plates were seeded with this cell suspension, each well receiving 100 μl of it. The plate was then be incubated at 37° C. temperature in CO2 incubator for 24 hours. Drugs were added at appropriate concentrations after 24-hour, incubation followed by further incubation for 48 hours. Experiment was terminated by gently layering the cells in the wells with 30% TCA and plates were kept in refrigerator for 1 hour following which they were washed thoroughly with tap water, dried attained with 0.4% SRB in 1% acetic aid and finally, the bound SRB eluted with 10 mM tris. Absorbance was read at 540 nm, in the microtitre-plate reader. Optical density of drug-treated cells was compared with that of control cells and cell inhibition was calculated as percent values. […]

[2] = tested on: Neuroblastoma (IMR-32) cancer cell line; test: SRB in vitro cytotoxicity assay, Neuroblastoma IMR-32; assay type: cell-based, human
Protocol: as §1

[3] = tested on: Breast (MCF-7) cancer cell line; test: SRB in vitro cytotoxicity assay, Breast MCF-7; assay type: cell-based, human
Protocol: as §1

[4] = tested on: CNS (SK-N-SH) cancer cell line; test: SRB in vitro cytotoxicity assay, CNS SK-N-SH; assay type: cell-based, human
Protocol: as §1

[5] = tested on: Colon (Colo-205) cancer cell line; test: SRB in vitro cytotoxicity assay, Colon Colo-205; assay type: cell-based, human
Protocol: as §1

[6] = tested on: Colon (SW-620) cancer cell line; test: SRB in vitro cytotoxicity assay, Colon SW-620; assay type: cell-based, human
Protocol: as §1

Topoisomerase-I = target: T1, Topoisomerase-I (Homo sapiens, UniProt P11387); test: Topoisomerase-I relaxation assay; assay type: biochemical; conditions: at 100 μM (FIG. 2)
T1 sequence (P11387 1-765): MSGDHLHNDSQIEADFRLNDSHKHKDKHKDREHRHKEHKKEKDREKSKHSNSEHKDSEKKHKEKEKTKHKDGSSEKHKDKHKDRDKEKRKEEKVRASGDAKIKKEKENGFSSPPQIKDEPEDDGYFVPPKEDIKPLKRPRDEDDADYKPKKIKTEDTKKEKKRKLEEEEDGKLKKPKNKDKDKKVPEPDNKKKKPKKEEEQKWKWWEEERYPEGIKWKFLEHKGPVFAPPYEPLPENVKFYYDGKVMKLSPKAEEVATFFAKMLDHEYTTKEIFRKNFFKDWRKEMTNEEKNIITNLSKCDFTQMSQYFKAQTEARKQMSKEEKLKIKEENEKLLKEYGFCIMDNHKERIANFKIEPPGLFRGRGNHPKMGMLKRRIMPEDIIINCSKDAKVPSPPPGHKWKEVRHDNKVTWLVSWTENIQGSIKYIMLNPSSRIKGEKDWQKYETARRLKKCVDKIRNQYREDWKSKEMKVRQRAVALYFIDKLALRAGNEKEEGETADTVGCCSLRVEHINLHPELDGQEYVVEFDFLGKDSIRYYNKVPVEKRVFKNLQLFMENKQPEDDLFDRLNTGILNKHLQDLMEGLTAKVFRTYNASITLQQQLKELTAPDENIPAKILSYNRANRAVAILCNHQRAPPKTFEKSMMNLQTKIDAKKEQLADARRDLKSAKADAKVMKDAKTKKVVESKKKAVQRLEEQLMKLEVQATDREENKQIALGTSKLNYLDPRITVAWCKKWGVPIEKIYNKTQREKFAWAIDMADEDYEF
Protocol: Apart from this, some of these analogues were evaluated for Topoisomerase-I relaxation, Topoisomerase-II inhibition, DNA laddering assay and DNA cell cycle analysis. Compounds 3c, 4c, 3d and 4d were analyzed for topoisomerase-I assay at 100 μM (FIG. 2) only compound 3d was found active and rest were not active. Compounds 3d, 4d and 4c were analyzed for topoisomerase inhibition assay.
Reaction was assembled in micro centrifuge tube that contains super coiled DNA 250 ng/μl & Topoisomerase-I (4 units) in assay buffer (10 mM Tris-HCl, pH 7.9, 0.15 M NaCl, 0.1% BSA, and 5.0 mM (beta)-mercaptoethanol). In each reaction 2 μl sample was added then volume was made up to 20 μl with water and then incubated at 37° C. Reaction was terminated by addition of 2 μl of 10% SDS. Each sample tube was treated with proteinase K and extracted once with chloroform: isoamyl alcohol. Products were resolved by 0.8% agarose gel electrophoresis in TAE buffer (40 mM tris-acetate, pH 8.0, and 1 mM EDTA) and stained with 0.5 μg/ml ethedium bromide (EtBr).

Topoisomerase-II = test: DNA Topoisomerase-II inhibition assay; assay type: biochemical; conditions: FIG. 3
[7] = concentration 1 × 10^−6 (μM/mL), control drug
[8] = concentration 1 × 10^−5 (μM/mL)

SMILES: COc1cccc2c1C(=O)c1c(O)c3c(c(O)c1C2=O)C[C@@](O)(C(=O)CO)C[C@@H]3O[C@H]1C[C@H](N)[C@H](O)[C@H](C)O1 [ADR, Adriamycin, reference compound]
- Growth Inhibition(%) Liver HEP-2 [1, 7]: 23%
- Growth Inhibition(%) Neuroblastma IMR-32 [2, 7]: 0%
- Growth Inhibition(%) Breast MCF-7 [3, 7]: 23%
- Growth Inhibition(%) CNS SK-N-SH [4, 7]: 36%
- Growth Inhibition(%) Colon Colo-205 [5, 7]: 18%
- Growth Inhibition(%) Colon SW-620 [6, 7]: 21%

SMILES: COc1cc([C@@H]2c3cc4c(cc3[C@@H](Nc3cccc5cc6ccccc6cc35)[C@@H]3COC(=O)[C@H]23)OCO4)cc(OC)c1OC [Compound 3a, 4β-(1″-Anthrylamino)-4-desoxypodophyllotoxin]
- Growth Inhibition(%) Liver HEP-2 [1, 8]: 46%
- Growth Inhibition(%) Neuroblastma IMR-32 [2, 8]: 16%
- Growth Inhibition(%) Breast MCF-7 [3, 8]: 5%
- Growth Inhibition(%) CNS SK-N-SH [4, 8]: 65%
- Growth Inhibition(%) Colon Colo-205 [5, 8]: 55%
- Growth Inhibition(%) Colon SW-620 [6, 8]: 25%

SMILES: COc1cc([C@@H]2c3cc4c(cc3[C@@H](Nc3cccc5c3Cc3ccccc3-5)[C@@H]3COC(=O)[C@H]23)OCO4)cc(OC)c1OC [Compound 3b, 4β-(1″-Fluorenylamino)-4-desoxypodophyllotoxin]
- Growth Inhibition(%) Liver HEP-2 [1, 8]: 77%
- Growth Inhibition(%) Neuroblastma IMR-32 [2, 8]: 0%
- Growth Inhibition(%) Breast MCF-7 [3, 8]: 4%
- Growth Inhibition(%) CNS SK-N-SH [4, 8]: 44%
- Growth Inhibition(%) Colon Colo-205 [5, 8]: 49%
- Growth Inhibition(%) Colon SW-620 [6, 8]: 11%

SMILES: COc1cc([C@@H]2c3cc4c(cc3[C@@H](Nc3ccc5ccc6cccc7ccc3c5c67)[C@@H]3COC(=O)[C@H]23)OCO4)cc(OC)c1OC [Compound 3c, 4β-(1″-Pyrenylamino)-4-desoxypodophyllotoxin]
- Growth Inhibition(%) Liver HEP-2 [1, 8]: 66%
- Growth Inhibition(%) Neuroblastma IMR-32 [2, 8]: 0%
- Growth Inhibition(%) Breast MCF-7 [3, 8]: 0%
- Growth Inhibition(%) CNS SK-N-SH [4, 8]: 59%
- Growth Inhibition(%) Colon Colo-205 [5, 8]: 64%
- Growth Inhibition(%) Colon SW-620 [6, 8]: 29%
- activity in topoisomerase-I assay (Topoisomerase-I): not active

SMILES: COc1cc([C@@H]2c3cc4c(cc3[C@@H](Nc3ccc(C(=O)c5ccc(F)cc5)cc3)[C@@H]3COC(=O)[C@H]23)OCO4)cc(OC)c1OC [Compound 3e, 4β-[4″-(4″-Fluorobenzoyl)anilino]-4-desoxypodophyllotoxin]
- Growth Inhibition(%) Liver HEP-2 [1, 8]: 0%
- Growth Inhibition(%) Neuroblastma IMR-32 [2, 8]: 0%
- Growth Inhibition(%) Breast MCF-7 [3, 8]: 30%
- Growth Inhibition(%) CNS SK-N-SH [4, 8]: 34%
- Growth Inhibition(%) Colon Colo-205 [5, 8]: 68%
- Growth Inhibition(%) Colon SW-620 [6, 8]: 10%

SMILES: COc1cc([C@@H]2c3cc4c(cc3[C@@H](Nc3ccc(C(=O)c5ccc(N(CCCl)CCCl)cc5)cc3)[C@@H]3COC(=O)[C@H]23)OCO4)cc(OC)c1OC [Compound 3f, 4β-(4″-{4″-[Di(2″-chloroethyl)amino]benzoyl}anilino)-4-desoxypodophyllotoxin]
- Growth Inhibition(%) Liver HEP-2 [1, 8]: 45%
- Growth Inhibition(%) Neuroblastma IMR-32 [2, 8]: 0%
- Growth Inhibition(%) Breast MCF-7 [3, 8]: 40%
- Growth Inhibition(%) CNS SK-N-SH [4, 8]: 83%
- Growth Inhibition(%) Colon Colo-205 [5, 8]: 74%
- Growth Inhibition(%) Colon SW-620 [6, 8]: 15%

SMILES: COc1cc([C@@H]2c3cc4c(cc3[C@@H](Nc3cccc5cc6ccccc6cc35)[C@@H]3COC(=O)[C@H]23)OCO4)cc(OC)c1O [Compound 4a, 4′-O-Demethyl-4β-(1″-anthrylamino)-4-desoxypodophyllotoxin]
- Growth Inhibition(%) Liver HEP-2 [1, 8]: 58%
- Growth Inhibition(%) Neuroblastma IMR-32 [2, 8]: 0%
- Growth Inhibition(%) Breast MCF-7 [3, 8]: 0%
- Growth Inhibition(%) CNS SK-N-SH [4, 8]: 38%
- Growth Inhibition(%) Colon Colo-205 [5, 8]: 39%
- Growth Inhibition(%) Colon SW-620 [6, 8]: 22%

SMILES: COc1cc([C@@H]2c3cc4c(cc3[C@@H](Nc3cccc5c3Cc3ccccc3-5)[C@@H]3COC(=O)[C@H]23)OCO4)cc(OC)c1O [Compound 4b, 4′-O-Demethyl-4β-(1″-fluorenylamino)-4-desoxypodophyllotoxin]
- Growth Inhibition(%) Liver HEP-2 [1, 8]: 0%
- Growth Inhibition(%) Neuroblastma IMR-32 [2, 8]: 0%
- Growth Inhibition(%) Breast MCF-7 [3, 8]: 39%
- Growth Inhibition(%) CNS SK-N-SH [4, 8]: 50%
- Growth Inhibition(%) Colon Colo-205 [5, 8]: 55%
- Growth Inhibition(%) Colon SW-620 [6, 8]: 15%

SMILES: COc1cc([C@@H]2c3cc4c(cc3[C@@H](Nc3ccc5ccc6cccc7ccc3c5c67)[C@@H]3COC(=O)[C@H]23)OCO4)cc(OC)c1O [Compound 4c, 4′-O-Demethyl-4β-(1″-pyrenylamino)-4-desoxypodophyllotoxin]
- Growth Inhibition(%) Liver HEP-2 [1, 8]: 39%
- Growth Inhibition(%) Neuroblastma IMR-32 [2, 8]: 0%
- Growth Inhibition(%) Breast MCF-7 [3, 8]: 0%
- Growth Inhibition(%) CNS SK-N-SH [4, 8]: 40%
- Growth Inhibition(%) Colon Colo-205 [5, 8]: 40%
- Growth Inhibition(%) Colon SW-620 [6, 8]: 7%
- activity in topoisomerase-I assay (Topoisomerase-I): not active
- activity in topoisomerase inhibition assay (Topoisomerase-II) (Topoisomerase-II): None of the compounds are active

SMILES: COc1cc([C@@H]2c3cc4c(cc3[C@@H](Nc3cc5c6ccccc6ccc5c5ccccc35)[C@@H]3COC(=O)[C@H]23)OCO4)cc(OC)c1O [Compound 4d, 4′-O-Demethyl-4β-(6″-chrycenylamino)-4-desoxypodophyllotoxin]
- Growth Inhibition(%) Liver HEP-2 [1, 8]: 76%
- Growth Inhibition(%) Neuroblastma IMR-32 [2, 8]: 0%
- Growth Inhibition(%) Breast MCF-7 [3, 8]: 0%
- Growth Inhibition(%) CNS SK-N-SH [4, 8]: 58%
- Growth Inhibition(%) Colon Colo-205 [5, 8]: 58%
- Growth Inhibition(%) Colon SW-620 [6, 8]: 17%
- activity in topoisomerase-I assay (Topoisomerase-I): not active
- activity in topoisomerase inhibition assay (Topoisomerase-II) (Topoisomerase-II): None of the compounds are active

SMILES: COc1cc([C@@H]2c3cc4c(cc3[C@@H](Nc3ccc(C(=O)c5ccc(F)cc5)cc3)[C@@H]3COC(=O)[C@H]23)OCO4)cc(OC)c1O [Compound 4e, 4′-O-Demethyl-4β-[4″-(4″-fluorobenzoyl)anilino]-4-desoxypodophyllotoxin]
- Growth Inhibition(%) Liver HEP-2 [1, 8]: 51%
- Growth Inhibition(%) Neuroblastma IMR-32 [2, 8]: 11%
- Growth Inhibition(%) Breast MCF-7 [3, 8]: 39%
- Growth Inhibition(%) CNS SK-N-SH [4, 8]: 91%
- Growth Inhibition(%) Colon Colo-205 [5, 8]: 77%
- Growth Inhibition(%) Colon SW-620 [6, 8]: 42%
